Assays:
[1] = tested on: classical pathway; assay: Classical pathway hemolysis assay (Ab-sensitized sheep erythrocytes); format: cell-based, human
Method: Everything was prepared at RT except for the serum which was kept on ice so that the complement cascade would not start. Washed Ab-sensitized sheep erythrocytes (EA) were added to a V-shaped 96-well plate together with the dilution series of antibodies in a buffer appropriate for the classical pathway. Normal human serum was added at a final assay concentration of 2% and mixed gently with the other components. Complement activation was started by incubating the plates at 37° C. shaking continuously at 600 rpm to prevent the total sedimentation of the EAs. Hemolysis reaction was stopped after 30 min with the addition of ice-cold NaCl-solution containing 10 mM EDTA. Plates were centrifuged for 2 min at 1000×g at 4° C. to pellet the non-lysed EAs. […] Percentage of hemolysis was calculated: (OD test sample−OD BG or EDTA ctrl)/(OD full lysis−OD BG or EDTA ctrl)×100. IC50 values were calculated using Xlfit.

[2] = tested on: alternative complement pathway in human serum; assay: Wieslab Complement system Alternative pathway assay; format: biochemical; settings: comparative compounds, Table E14
Method: This kit is an enzyme immunoassay for the determination of functional alternative complement pathway in human serum.
It combines principles of a hemolytic assay for complement activation with the use of specific antibodies to detect the generated neoantigen, which is proportional to the functional activity of the complement pathway. […] This mixture was diluted 1:18 in a diluent with a specific blocker (so that only AP will be activated) and incubated for another 15 min at RT. Solution was added to a 96-well plate specifically coated with activators of the AP and incubated for 60 min at 37° C. Wells were washed and C5b-9 detected following the protocol.

[3] = molecular target: T1, C3 convertase (C3bBb) (Homo sapiens, UniProt P00751+P01024); assay: BLI based C3b deposition assay; format: biochemical; settings: comparative compounds, Table E14
T1 construct: C3b fragment of complement component C3; from tissue; host or cells: plasma (factor B and factor D)
Method: In another experiment, the potency of the antibodies was assessed via a BLI based C3b deposition assay.
BLI based C3b deposition assay: The activated carbonyl group created upon C3 cleavage by the C3 convertase reacts and forms covalent adducts with nucleophiles in close proximity to the enzyme. We utilized this property to measure convertase activity by quantifying the C3b mass deposited on a BLI sensor loaded with C3bBb and exposed to C3.

[4] = tested on: C3bBb from Macaca Fascicularis; assay: Cross-reactivity hemolysis assay, Macaca Fascicularis; format: cell-based, Macaca Fascicularis (Cynomolgus); settings: 37° C., 20 min
[5] = tested on: C3bBb from Chlorocebus sabaeus; assay: Cross-reactivity hemolysis assay, Chlorocebus sabaeus; format: cell-based, Chlorocebus sabaeus (African Green Monkey); settings: RT, 20 min

T1 sequence (P01024 23-667 limits assumed): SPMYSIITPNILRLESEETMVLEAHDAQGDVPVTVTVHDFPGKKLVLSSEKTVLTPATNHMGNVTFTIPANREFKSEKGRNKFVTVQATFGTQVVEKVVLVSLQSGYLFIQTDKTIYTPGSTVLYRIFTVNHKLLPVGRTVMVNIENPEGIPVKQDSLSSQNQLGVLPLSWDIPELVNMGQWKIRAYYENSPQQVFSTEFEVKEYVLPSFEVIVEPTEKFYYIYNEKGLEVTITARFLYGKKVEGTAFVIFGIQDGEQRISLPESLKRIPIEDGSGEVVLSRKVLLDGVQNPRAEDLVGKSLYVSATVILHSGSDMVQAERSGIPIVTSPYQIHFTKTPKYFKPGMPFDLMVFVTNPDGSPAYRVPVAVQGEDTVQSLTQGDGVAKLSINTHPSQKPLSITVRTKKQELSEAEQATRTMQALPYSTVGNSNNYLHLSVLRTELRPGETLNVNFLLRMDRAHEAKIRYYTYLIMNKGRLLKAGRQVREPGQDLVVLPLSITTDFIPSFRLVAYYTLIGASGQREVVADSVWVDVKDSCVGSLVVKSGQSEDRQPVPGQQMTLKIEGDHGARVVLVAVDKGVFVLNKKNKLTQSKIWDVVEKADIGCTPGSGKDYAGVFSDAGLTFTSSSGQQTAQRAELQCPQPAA
T1 sequence (P01024 749-1663 limits assumed): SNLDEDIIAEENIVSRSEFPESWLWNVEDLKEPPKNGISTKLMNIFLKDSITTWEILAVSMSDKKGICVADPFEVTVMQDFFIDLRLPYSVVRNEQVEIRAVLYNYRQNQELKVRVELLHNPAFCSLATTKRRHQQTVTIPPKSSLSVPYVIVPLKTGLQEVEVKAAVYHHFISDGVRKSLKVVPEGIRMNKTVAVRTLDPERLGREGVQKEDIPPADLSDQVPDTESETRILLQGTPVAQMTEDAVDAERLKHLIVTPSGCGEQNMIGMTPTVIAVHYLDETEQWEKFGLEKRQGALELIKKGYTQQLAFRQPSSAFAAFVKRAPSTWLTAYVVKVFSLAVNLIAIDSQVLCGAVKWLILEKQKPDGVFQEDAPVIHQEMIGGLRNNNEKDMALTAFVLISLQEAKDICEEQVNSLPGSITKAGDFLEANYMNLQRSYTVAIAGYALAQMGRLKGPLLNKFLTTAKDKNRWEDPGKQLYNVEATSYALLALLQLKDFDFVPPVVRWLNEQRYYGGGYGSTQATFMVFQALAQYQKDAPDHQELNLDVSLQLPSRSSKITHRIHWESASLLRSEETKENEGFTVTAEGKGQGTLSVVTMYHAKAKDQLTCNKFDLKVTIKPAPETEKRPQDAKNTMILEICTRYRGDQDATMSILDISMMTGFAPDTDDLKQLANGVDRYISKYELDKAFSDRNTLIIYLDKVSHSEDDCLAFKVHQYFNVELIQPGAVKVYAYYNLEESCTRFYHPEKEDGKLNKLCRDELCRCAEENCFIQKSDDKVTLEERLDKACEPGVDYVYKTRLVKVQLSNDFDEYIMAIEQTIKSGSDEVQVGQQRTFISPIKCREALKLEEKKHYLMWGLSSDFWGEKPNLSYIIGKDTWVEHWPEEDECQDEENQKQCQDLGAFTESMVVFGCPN
T1 sequence (P00751 260-764 limits assumed): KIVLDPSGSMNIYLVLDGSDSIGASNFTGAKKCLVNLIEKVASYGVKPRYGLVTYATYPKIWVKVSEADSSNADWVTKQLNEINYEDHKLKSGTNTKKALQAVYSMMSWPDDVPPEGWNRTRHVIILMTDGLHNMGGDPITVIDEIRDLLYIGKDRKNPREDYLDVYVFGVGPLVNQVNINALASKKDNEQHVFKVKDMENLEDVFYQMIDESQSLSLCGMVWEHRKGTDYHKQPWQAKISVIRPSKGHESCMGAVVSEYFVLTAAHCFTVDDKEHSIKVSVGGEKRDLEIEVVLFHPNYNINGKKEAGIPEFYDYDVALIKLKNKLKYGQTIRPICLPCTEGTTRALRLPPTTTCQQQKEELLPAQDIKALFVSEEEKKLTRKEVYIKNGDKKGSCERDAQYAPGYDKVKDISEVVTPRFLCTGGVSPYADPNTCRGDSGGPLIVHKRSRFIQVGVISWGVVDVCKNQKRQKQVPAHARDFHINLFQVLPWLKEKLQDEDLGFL

Row | IC50 [2] [nM] | IC50 [3] [nM] | Compound | inhibition of the classical pathway [1] | IC50 [4] [nM] | IC50 [5] [nM] | IC50 ([1]; 2% normal human serum, sheep erythrocytes) [nM]
1 |  |  | CCO[C@H]1CCN(Cc2c(OC)cc(C)c3[nH]ccc23)[C@H](c2ccc(C(=O)O)cc2)C1 [LNP023, Iptacopan] | does not inhibit the classical pathway |  |  | 
2 | 274 | 200 | Pegcetacoplan [APL-2] |  | 316 | 147 | 1020
